What was measured:
A2B receptor = biological target: T1, A2B receptor (Homo sapiens, UniProt P29275); assay: Test 1: inhibitory activity to the A2B receptor, cAMP HTRF in CHO-K1/ADORA2B/Gα15 cells, NECA 10 nM; format: cell-based
T1 construct: host or cells: CHO-K1 (co-expressing Gα15)
T1 sequence (P29275 1-332): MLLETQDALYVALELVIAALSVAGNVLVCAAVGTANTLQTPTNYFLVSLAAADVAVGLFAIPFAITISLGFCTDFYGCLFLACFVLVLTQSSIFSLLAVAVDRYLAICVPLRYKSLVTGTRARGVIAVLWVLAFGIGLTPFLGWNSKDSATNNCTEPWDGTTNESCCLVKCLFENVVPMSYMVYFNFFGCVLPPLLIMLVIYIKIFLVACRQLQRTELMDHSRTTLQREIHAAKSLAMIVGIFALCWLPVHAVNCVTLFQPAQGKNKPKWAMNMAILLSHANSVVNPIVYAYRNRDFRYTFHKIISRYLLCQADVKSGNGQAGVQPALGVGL
Method: (§1) Test 1: Inhibitory Activities to the A2A Receptor and the A2B Receptor CHO-K1/ADORA2A/Gα15 (GenScript, M00246) and CHO-K1/ADORA2B/Gα15 (GenScript, M00329) cells were cultured in a Ham's F-12 (Gibco, 31765092) medium containing 10% FBS, Zeocin (200 ug/mL), and Hygromycin B (100 ug/mL), or containing 10% FBS, G418 (400 ug/mL), and Hygromycin B (100 ug/mL) under culture conditions specified in the corresponding instruction. Screening procedure was as follows: 1. The cell density was adjusted with a serum-free medium to 6×10^5 cells/mL. 2. 5 uL of cell solution, 2.5 μL of NECA (Sigma, 119140-10MG), and 2.5 μL of compound solution were placed into each well of a 384-well plate (Greiner Bio-One, 784075) in sequence, the final concentration of NECA was 50 nM (CHO-K1/ADORA2A) or 10 nM (CHO-K1/ADORA2B), and the compound solution was subjected to 3-fold dilution from the final concentration of 3 uM. 3. The cells were placed still and cultured in an incubator at 37° C. for 30 min. 4. 5 μL of cAMP-d2 and 5 μL of cAMP-ab (Cisbio, 62AM4PEB) were added in sequence. 5. The 384-well plate was placed in dark at the room temperature for 1 h. 6. The plate was read (Victor X5, PerkinElmer), data were analyzed by XLfit nonlinear regression, and IC50 values of the compounds were calculated.

A2A receptor = biological target: T2, A2A receptor (Homo sapiens, UniProt P29274); assay: Test 1: inhibitory activity to the A2A receptor, cAMP HTRF in CHO-K1/ADORA2A/Gα15 cells, NECA 50 nM; format: cell-based
T2 construct: host or cells: CHO-K1 (co-expressing Gα15)
Method: as §1

T2 sequence (P29274 whole entry): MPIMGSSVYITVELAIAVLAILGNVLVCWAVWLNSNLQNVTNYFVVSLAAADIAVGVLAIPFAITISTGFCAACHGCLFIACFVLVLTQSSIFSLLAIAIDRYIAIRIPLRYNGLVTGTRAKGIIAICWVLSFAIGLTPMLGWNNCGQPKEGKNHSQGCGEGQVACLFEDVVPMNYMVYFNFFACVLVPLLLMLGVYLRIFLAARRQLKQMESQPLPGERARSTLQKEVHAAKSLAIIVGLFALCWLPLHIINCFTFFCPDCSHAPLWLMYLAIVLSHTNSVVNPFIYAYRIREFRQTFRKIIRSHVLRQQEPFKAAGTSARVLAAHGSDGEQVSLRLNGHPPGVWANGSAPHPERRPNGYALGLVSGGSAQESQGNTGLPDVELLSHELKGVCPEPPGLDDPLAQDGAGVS

Compound | IC50 (A2B receptor) [µM] | IC50 (A2A receptor) [µM]
Cc1c(C#N)cccc1-c1nc(N)nc(-c2cn(Cc3cccc(C(C)(C)O)n3)nn2)c1F [Compound L-2] | 0.029 | 0.062
CC(C)(O)c1cccc(Cn2cc(-c3nc(-c4cccc(C#N)c4)nc4c3OCC(=O)N4)nn2)n1 [Compound L-4] | 0.006 | 0.001
CC(C)(O)c1cccc(Cn2cc(-c3nc(-c4cccc(C#N)c4F)nc(N)c3F)nn2)n1 [Compound L-5] | 0.006 | 0.004
Cc1c(C#N)cccc1-c1nc(N)c(Cl)c(-c2cn(Cc3cccn(CC(C)(C)O)c3=O)nn2)n1 [Compound L-7] | 0.007 | < 0.001
Cc1c(C#N)cccc1-c1nc(N)c(Cl)c(-c2cn(Cc3cccn(C(C)C)c3=O)nn2)n1 [Compound L-8] | 0.003 | < 0.001
CCc1nccc(Cn2cc(-c3nc(-c4cccc(C#N)c4C)nc(N)c3Cl)nn2)n1 [Compound L-11] | 0.014 | 0.001
Cc1c(C#N)cccc1-c1nc(N)c(Cl)c(-c2cn(Cc3ccn(C4CC4)n3)nn2)n1 [Compound L-12] | 0.004 | < 0.001
Cc1c(C#N)cccc1-c1nc(N)c(Cl)c(-c2cn(Cc3cccn(C)c3=O)nn2)n1 [Compound L-13] | 0.013 | 0.001
Cc1c(F)cccc1-c1nc(N)c(F)c(-c2cn(Cc3cccc(C(C)(C)O)n3)nn2)n1 [Compound L-14] | 0.014 | 0.017
Cc1c(C#N)cccc1-c1nc(N)c(F)c(-c2cn(Cc3cccn(C4CC4)c3=O)nn2)n1 [Compound L-17] | 0.007 | 0.001
Cc1c(C#N)cccc1-c1nc(N)c(F)c(-c2cn(Cc3ccn(C4CC(F)(F)C4)n3)nn2)n1 [Compound L-19] | 0.006 | 0.003
Cc1c(C#N)cccc1-c1nc(N)c(Cl)c(-c2cn(Cc3cc[nH]n3)nn2)n1 [Compound L-20] | 0.012 | 0.004
Cc1c(C#N)cccc1-c1nc(N)c(F)c(-c2cn(Cc3cc(F)n(C)n3)nn2)n1 [Compound L-21] | 0.021 | 0.007
Cc1c(C#N)cccc1-c1nc(N)c(Cl)c(-c2cn(Cc3cc(C(C)(C)O)[nH]n3)nn2)n1 [Compound L-22] | 0.001 | 0.01
Cc1c(C#N)cccc1-c1nc(N)c(F)c(-c2cn(Cc3cc[nH]n3)nn2)n1 [Compound L-27] | 0.002 | 0.007
Cc1c(C#N)cccc1-c1nc(N)c(F)c(-c2cn(Cc3ccn(CC(N)=O)n3)nn2)n1 [Compound L-29] | 0.008 | 0.009
CCn1ccc(Cn2cc(-c3nc(-c4cccc(C#N)c4C)nc(N)c3F)nn2)n1 [Compound L-30] | 0.001 | < 0.001
Cc1c(C#N)cccc1-c1nc(N)c(Cl)c(-c2cnn(Cc3ccn(C)n3)c2)n1 [Compound L-33] | 0.005 | 0.002
Cc1c(C#N)cccc1-c1nc(N)c(Cl)c(-c2cn(Cc3ccn(C(F)F)n3)nn2)n1 [Compound L-34] | 0.008 | 0.002
Cc1c(C#N)cccc1-c1nc(N)c(F)c(-c2cn(Cc3ccn(CC(C)C)n3)nn2)n1 [Compound L-36] | 0.01 | 0.001
Cc1c(C#N)cccc1-c1nc(N)c(F)c(-c2cn(Cc3ccn(CC(F)(F)F)n3)nn2)n1 [Compound L-37] | 0.007 | 0.002
Cc1c(C#N)cccc1-c1nc(N)c(F)c(-c2cn(Cc3ccn(CC4CC4)n3)nn2)n1 [Compound L-39] | 0.007 | 0.002
Cc1c(C#N)cccc1-c1nc(N)c(F)c(-c2cn(Cc3cnn(C)n3)nn2)n1 [Compound L-47] | 0.024 | 0.011
Cc1c(C#N)cccc1-c1nc(N)c(F)c(-c2cn(Cc3ccn(C(C)(C)CO)n3)nn2)n1 [Compound L-49] | 0.002 | 0.001
Cc1c(C#N)cccc1-c1nc(N)c(F)c(-c2cn(Cc3ccn(C(C)(C)C)n3)nn2)n1 [Compound L-51] | 0.006 | 0.03
Cc1c(C#N)cccc1-c1nc(N)c(F)c(-c2cn(Cc3cccc(C4(O)COC4)n3)nn2)n1 [Compound L-53] | 0.004 | 0.002
Cc1c(C#N)cccc1-c1nc(N)c(F)c(-c2cn(Cc3cccc(C(C)(C)C#N)n3)nn2)n1 [Compound L-54] | 0.004 | 0.003

Compound | IC50 (A2B receptor) [µM] | IC50 (A2A receptor) [µM]
Cc1c(C#N)cccc1-c1nc(N)c(F)c(-c2cn(Cc3cccc(C(N)=O)n3)nn2)n1 [Compound L-56] | 0.024 | 0.007
Cc1c(C#N)cccc1-c1nc(N)nc(-c2cn(Cc3ccn(C)n3)nn2)c1F [Compound L-59] | 0.049 | 0.063
COCc1cccc(Cn2cc(-c3nc(N)nc(-c4cccc(C#N)c4C)c3F)nn2)n1 [Compound L-60] | 0.073 | 0.079
COCc1cccc(Cn2cc(-c3nc(-c4cccc(C#N)c4C)nc(N)c3F)nn2)n1 [Compound L-62] | 0.003 | 0.001
Cc1c(C#N)cccc1-c1nc(N)c(F)c(-c2cn(Cc3cccc(C(C)(C)CO)n3)nn2)n1 [Compound L-63] | 0.005 | 0.001
Cc1c(C#N)cccc1-c1nc(N)c(F)c(-c2cn(Cc3cccc(C4(O)CCC4)n3)nn2)n1 [Compound L-64] | 0.004 | 0.001
Cc1c(C#N)cccc1-c1nc(N)c(F)c(-c2cn(Cc3cccc(N4CCC(O)C4)n3)nn2)n1 [Compound L-65] | 0.022 | 0.005
Cc1c(C#N)cccc1-c1nc(N)c(F)c(-c2cn(Cc3cccc(C4(O)CCCC4)n3)nn2)n1 [Compound L-66] | 0.011 | 0.003
Cc1c(C#N)cccc1-c1nc(N)c(F)c(-c2cn(Cc3cccc(C(C)C)n3)nn2)n1 [Compound L-68] | 0.011 | 0.002
Cc1c(C#N)cccc1-c1nc(N)c(F)c(-c2cn(Cc3cccc(N4CCOCC4)n3)nn2)n1 [Compound L-69] | 0.02 | 0.005
Cc1c(C#N)cccc1-c1nc(N)c(F)c(-c2cn(Cc3cccc(CN4CCOCC4)n3)nn2)n1 [Compound L-70] | 0.013 | 0.002
Cc1c(C#N)cccc1-c1nc(N)c(F)c(-c2cn(Cc3cccc(CN4CCN(C)CC4)n3)nn2)n1 [Compound L-71] | 0.023 | 0.006
Cc1c(C#N)cccc1-c1nc(N)c(F)c(-c2cn(Cc3cccc(N4CCN(C)CC4)n3)nn2)n1 [Compound L-72] | 0.014 | 0.004
Cc1c(C#N)cccc1-c1nc(N)c(F)c(-c2cn(Cc3cccc(C(F)F)n3)nn2)n1 [Compound L-73] | 0.005 | 0.003
Cc1c(C#N)cccc1-c1nc(N)c(F)c(-c2cn(Cc3ccn(C(C)C)n3)nn2)n1 [Compound L-75] | 0.0005 | < 0.001
Cc1c(C#N)cccc1-c1nc(N)c(F)c(-c2cn(Cc3ccn(CC(C)(C)O)n3)nn2)n1 [Compound L-76] | 0.007 | 0.005
Cc1c(C#N)cccc1-c1nc(N)c(F)c(-c2cn(Cc3ccn(C4CCOC4)n3)nn2)n1 [Compound L-77] | 0.003 | 0.001
COCCn1ccc(Cn2cc(-c3nc(-c4cccc(C#N)c4C)nc(N)c3F)nn2)n1 [Compound L-78] | 0.003 | 0.003
Cc1c(C#N)cccc1-c1nc(N)c(F)c(-c2cn(Cc3cc(C)n(C)n3)nn2)n1 [Compound L-79] | 0.025 | 0.019
Cc1c(C#N)cccc1-c1nc(N)c(F)c(-c2cn(Cc3nn(C)cc3F)nn2)n1 [Compound L-80] | 0.013 | 0.015
Cc1c(C#N)cccc1-c1nc(N)c(F)c(-c2cn(Cc3cccc(C(C)(O)C(F)(F)F)n3)nn2)n1 [Compound L-81] | 0.023 | 0.004
Cc1c(C#N)cccc1-c1nc(N)c(F)c(-c2cn(Cc3ccn(CC4CCCO4)n3)nn2)n1 [Compound L-83] | 0.007 | 0.003
Cc1c(C#N)cccc1-c1nc(N)c(Cl)c(-c2cn(Cc3cccc(S(C)(=O)=O)c3)nn2)n1 [Compound L-84] | 0.024 | 0.004
CCC(C)(O)c1cccc(Cn2cc(-c3nc(-c4cccc(C#N)c4C)nc(N)c3F)nn2)n1 [Compound L-85] | 0.004 | 0.002
COC(C)c1cccc(Cn2cc(-c3nc(-c4cccc(C#N)c4C)nc(N)c3F)nn2)n1 [Compound L-86] | 0.001 | < 0.001
Cc1c(C#N)cccc1-c1nc(N)c(F)c(-c2cn(Cc3ccn(C4COC4)n3)nn2)n1 [Compound L-88] | 0.008 | 0.002

From US20230145793A1, “SUBSTITUTED PYRIMIDINE OR PYRIDINE AMINE DERIVATIVE, COMPOSITION THEREOF, AND MEDICAL USE THEREOF” (SHANGHAI HAIYAN PHARMACEUTICAL TECHNOLOGY CO., LTD., priority 2020, published 2023)
